From paper PMC7557242 (ACS Omega, 2020)
Like-named read-outs stand apart in the source and are kept apart here.

Legend:
[1] = system: plasma protein; conditions: cited from earlier work
[2] = system: serum albumin (SA); conditions: after intravenous injection, in most of the cases; cited from earlier work
[3] = system: SAs from different species; conditions: CSA versus HSA
[4] = system: human serum albumin; conditions: previous study, cited from earlier work

SMILES: CC(C)c1cccc(C(C)C)c1O [PR, 2,6-Diisopropylphenol]
- % PPB (plasma protein binding) [1]: 96–98%
- PR bound to SA [2]: approximately 80%
- difference between UC50 values [3]: 0.07
- ΔGPBSA ([4]; PR1): -23.44 kcal/mol
- ΔGPBSA ([4]; PR2): -19.03 kcal/mol
